From PubChem BioAssay (NCI)
≈ marks a conversion by molar mass, not a printed value.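 Compound exposure: 48 hours, 5 concentrations, 96-well plates. At the GI50, growth is halved. TGI denotes the concentration required for complete inhibition of growth.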

Key:
Experiment in all cases: NCI-60 cell line screen, 48 h
[1] = tested on: NCI-H522 lung
[2] = tested on: SK-MEL-5 melanoma
[3] = tested on: RPMI-8226 leukemia
[4] = tested on: M14 melanoma
[5] = tested on: HS 578T breast
[6] = tested on: SF-539 CNS
[7] = tested on: SNB-75 CNS
[8] = tested on: HCT-15 colon
[9] = tested on: OVCAR-5 ovarian
[10] = tested on: OVCAR-4 ovarian
[11] = tested on: HT29 colon
[12] = tested on: MDA-MB-231 breast
[13] = tested on: PC-3 prostate
[14] = tested on: COLO 205 colon
[15] = tested on: HOP-92 NSCLC
[16] = tested on: HCT-116 colon
[17] = tested on: OVCAR-3 ovarian
[18] = tested on: KM12 colon
[19] = tested on: HCC-2998 colon
[20] = tested on: UACC-62 melanoma
[21] = tested on: EKVX NSCLC
[22] = tested on: TK-10 renal
[23] = tested on: MDA-MB-435
[24] = tested on: MCF7 breast
[25] = tested on: SF-268 CNS
[26] = tested on: CAKI-1 renal
[27] = tested on: MOLT-4 leukemia
[28] = tested on: NCI-H460 lung
[29] = tested on: K-562 leukemia
[30] = tested on: IGROV1 ovarian
[31] = tested on: NCI/ADR-RES ovarian
[32] = tested on: OVCAR-8 ovarian
[33] = tested on: HOP-62 NSCLC
[34] = tested on: MALME-3M melanoma
[35] = tested on: HL-60(TB) leukemia
[36] = tested on: SK-MEL-28 melanoma
[37] = tested on: ACHN renal
[38] = tested on: CCRF-CEM leukemia
[39] = tested on: U251 CNS
[40] = tested on: T-47D breast
[41] = tested on: UACC-257 melanoma
[42] = tested on: SW-620 colon
[43] = tested on: SNB-19 CNS
[44] = tested on: DU-145 prostate
[45] = tested on: 786-0 renal
[46] = tested on: A498 renal
[47] = tested on: SK-MEL-2 melanoma
[48] = tested on: NCI-H226 lung
[49] = tested on: SN12C renal
[50] = tested on: LOX IMVI melanoma
[51] = tested on: NCI-H23 lung
[52] = tested on: A549 NSCLC
[53] = tested on: SR leukemia
[54] = tested on: UO-31 renal
[55] = tested on: SK-OV-3 ovarian
[56] = tested on: RXF 393 renal
[57] = tested on: SF-295 CNS
[58] = tested on: BT-549 breast

## N=C(N)c1ccc(N2CCCN(c3ccc(C(=N)N)cc3)CC2)cc1
[1]
  GI50: 81900 nM
  TGI: > 100000 nM
[2]
  GI50: 27900 nM
  TGI: > 100000 nM
[3]
  GI50: > 100000 nM
  TGI: > 100000 nM
[4]
  GI50: > 100000 nM
  TGI: > 100000 nM
[5]
  GI50: 32400 nM
  TGI: 96900 nM
[6]
  GI50: 41500 nM
  TGI: > 100000 nM
[7]
  GI50: > 100000 nM
  TGI: > 100000 nM
[8]
  GI50: 65300 nM
  TGI: > 100000 nM
[9]
  GI50: > 100000 nM
  TGI: > 100000 nM
[10]
  GI50: > 100000 nM
  TGI: > 100000 nM
[11]
  GI50: 74500 nM
  TGI: > 100000 nM
[12]
  GI50: > 100000 nM
  TGI: > 100000 nM
[13]
  GI50: > 100000 nM
  TGI: > 100000 nM
[14]
  GI50: 31800 nM
  TGI: > 100000 nM
[15]
  GI50: 89600 nM
  TGI: > 100000 nM
[16]
  GI50: > 100000 nM
  TGI: > 100000 nM
[17]
  GI50: 72400 nM
  TGI: > 100000 nM
[18]
  GI50: 62100 nM
  TGI: > 100000 nM
[19]
  GI50: > 100000 nM
  TGI: > 100000 nM
[20]
  GI50: 89000 nM
  TGI: > 100000 nM
[21]
  GI50: 42400 nM
  TGI: > 100000 nM
[22]
  GI50: 58200 nM
  TGI: > 100000 nM
[23]
  GI50: > 100000 nM
  TGI: > 100000 nM
[24]
  GI50: 52300 nM
  TGI: > 100000 nM
[25]
  GI50: 57700 nM
  TGI: > 100000 nM
[26]
  GI50: 99700 nM
  TGI: > 100000 nM
[27]
  GI50: > 100000 nM
  TGI: > 100000 nM
[28]
  GI50: 50600 nM
  TGI: > 100000 nM
[29]
  GI50: 89600 nM
  TGI: > 100000 nM
[30]
  GI50: > 100000 nM
  TGI: > 100000 nM
[31]
  GI50: > 100000 nM
  TGI: > 100000 nM
[32]
  GI50: 49600 nM
  TGI: > 100000 nM
[33]
  GI50: 61600 nM
  TGI: > 100000 nM
[34]
  GI50: 39600 nM
  TGI: > 100000 nM
[35]
  GI50: > 100000 nM
  TGI: > 100000 nM
[36]
  GI50: > 100000 nM
  TGI: > 100000 nM
[37]
  GI50: > 100000 nM
  TGI: > 100000 nM
[38]
  GI50: > 100000 nM
  TGI: > 100000 nM
[39]
  GI50: 47700 nM
  TGI: > 100000 nM
[40]
  GI50: 22600 nM
  TGI: 81000 nM
[41]
  GI50: > 100000 nM
  TGI: > 100000 nM
[42]
  GI50: > 100000 nM
  TGI: > 100000 nM
[43]
  GI50: 48700 nM
  TGI: > 100000 nM
[44]
  GI50: 46700 nM
  TGI: > 100000 nM
[45]
  GI50: > 100000 nM
  TGI: > 100000 nM
[46]
  GI50: 1760 nM
  TGI: 9620 nM
[47]
  GI50: > 100000 nM
  TGI: > 100000 nM
[48]
  GI50: 84700 nM
  TGI: > 100000 nM
[49]
  GI50: 66600 nM
  TGI: > 100000 nM
[50]
  GI50: 56100 nM
  TGI: > 100000 nM
[51]
  GI50: 74500 nM
  TGI: > 100000 nM
[52]
  GI50: 40500 nM
  TGI: > 100000 nM
[53]
  GI50: > 100000 nM
  TGI: > 100000 nM
[54]
  GI50: > 100000 nM
  TGI: > 100000 nM
[55]
  GI50: > 100000 nM
  TGI: > 100000 nM
[56]
  GI50: 98200 nM
  TGI: > 100000 nM
[57]
  GI50: 32600 nM
  TGI: > 100000 nM

## CCN=C1C=CC(=C(c2ccc(N)cc2)c2ccc(N(CC)CC)c(C)c2)C=C1
[1]
  GI50: 310 nM
  TGI: 1620 nM
[2]
  GI50: 208 nM
  TGI: 440 nM
[3]
  GI50: 149 nM
  TGI: 882 nM
[4]
  GI50: 349 nM
  TGI: 1770 nM
[5]
  GI50: 278 nM
  TGI: 5100 nM
[6]
  GI50: 340 nM
  TGI: 1360 nM
[7]
  GI50: 204 nM
  TGI: 650 nM
[8]
  GI50: 917 nM
  TGI: 4770 nM
[9]
  GI50: 317 nM
  TGI: 2070 nM
[10]
  GI50: 298 nM
  TGI: 1660 nM
[11]
  GI50: 271 nM
  TGI: 1200 nM
[12]
  GI50: 219 nM
  TGI: 654 nM
[13]
  GI50: 205 nM
  TGI: 4330 nM
[14]
  GI50: 185 nM
  TGI: 400 nM
[15]
  GI50: 182 nM
  TGI: 543 nM
[16]
  GI50: 239 nM
  TGI: 1110 nM
[17]
  GI50: 368 nM
  TGI: 1260 nM
[18]
  GI50: 296 nM
  TGI: 1090 nM
[19]
  GI50: 480 nM
  TGI: 1650 nM
[20]
  GI50: 248 nM
  TGI: 866 nM
[21]
  GI50: 266 nM
  TGI: 11100 nM
[22]
  GI50: 396 nM
  TGI: 10700 nM
[23]
  GI50: 286 nM
  TGI: 884 nM
[25]
  GI50: 407 nM
  TGI: 2090 nM
[26]
  GI50: 1920 nM
  TGI: 8150 nM
[27]
  GI50: 394 nM
  TGI: 5120 nM
[28]
  GI50: 287 nM
  TGI: 1180 nM
[29]
  GI50: 259 nM
  TGI: 1720 nM
[30]
  GI50: 537 nM
  TGI: 4010 nM
[31]
  GI50: 2740 nM
  TGI: > 100000 nM
[33]
  GI50: 316 nM
  TGI: 1730 nM
[34]
  GI50: 329 nM
  TGI: 1230 nM
[35]
  GI50: 304 nM
  TGI: 841 nM
[36]
  GI50: 394 nM
  TGI: 1960 nM
[37]
  GI50: 422 nM
  TGI: 2660 nM
[38]
  GI50: 306 nM
  TGI: 5350 nM
[39]
  GI50: 124 nM
  TGI: 1590 nM
[40]
  GI50: 222 nM
  TGI: 1340 nM
[41]
  GI50: 324 nM
  TGI: 1690 nM
[42]
  GI50: 345 nM
  TGI: 1620 nM
[43]
  GI50: 225 nM
  TGI: 1620 nM
[44]
  GI50: 430 nM
  TGI: 2280 nM
[45]
  GI50: 344 nM
  TGI: 1840 nM
[46]
  GI50: 240 nM
  TGI: 931 nM
[47]
  GI50: 303 nM
  TGI: 943 nM
[49]
  GI50: 201 nM
  TGI: 1150 nM
[51]
  GI50: 318 nM
  TGI: 1300 nM
[52]
  GI50: 337 nM
  TGI: 12900 nM
[53]
  GI50: 313 nM
  TGI: 1240 nM
[54]
  GI50: 2030 nM
  TGI: 10300 nM
[55]
  GI50: 255 nM
  TGI: 703 nM
[56]
  GI50: 400 nM
  TGI: 1860 nM
[57]
  GI50: 223 nM
  TGI: 745 nM

## CC(=O)OC1C=CC(OC(C)=O)C2C1[C@H]1C3C=CC=CC3[C@@H]2S1=O (some centres undefined)
[19]
  GI50: 94.2 µg/mL
[23]
  GI50: 40.2 µg/mL
[46]
  GI50: 53.7 µg/mL
[58]
  GI50: 59.8 µg/mL (≈ 172 µM)
